Measured values from patent US10317418B2, “Use of ghrelin or functional ghrelin receptor agonists to prevent and treat stress-sensitive psychiatric illness” (Massachusetts Institute of Technology, priority 2015, dated 2019).
“Also recorded” adds a separate entry of the source. Where a name gives a salt, the structure may show the parent alone.

Assays:
[1] = in vivo; cited from earlier work
Long Evans rats [2] = assay: auditory fear conditioning after chronic immobilization stress or handling; assay type: in vivo, rat; settings: FIG. 4F
Description: (§1) Some rats received systemic or intra-BLA delivery of ibutamoren mesylate (IBU). For systemic drug delivery, rats were injected with 1 ml kg^−1 intraperitoneal injection (i.p.) of either vehicle or drug. […] A concentration of 0.5 mg ml^−1, diluted in saline, was used. For experiments using intra-BLA drug delivery, ibutamoren mesylate was solubilized in artificial cerebrospinal fluid (pH=7.4) to a concentration of 0.5 μg μl^−1.
(§2) On the fear conditioning day, rats were exposed to four tone-shock pairings with a 60 second ITI (460 seconds total time). For context extinction, rats were returned to the conditioning context for 12 minutes total. For tone extinction, rats were exposed to twelve tones (10 seconds, 85 dB) for 960 seconds total. Conditioning, context and tone extinction sessions were separated by 24 hours.
Infrared cameras (frame rate: 30 Hz) and VideoFreeze software (MedAssociates; St Albans, Vt.) were used to record behavior during all training and testing sessions. Motor activity was measured using the “motion index”, a number generated by the VideoFreeze software, which corresponds roughly to the change in grayscale values across the image pixels; a higher motion index indicates greater movement. Freezing was measured by computing the number of observations below a threshold motion index and converting this number to a percentage of all observations for the period of interest. The threshold defined the value of the motion index below which only motor activity related to breathing was observed. […]
To determine whether the decrease in ghrelin binding sites in the BLA of chronically stressed rats exerts a functional impact, rats received either chronic immobilization stress or handling for two weeks followed by auditory fear conditioning (FIG. 4E). IBU, at the dose shown to reduce fear memory strength in unstressed rats (FIGS. 3A-D), or VEH was injected immediately after conditioning and long-term auditory fear memory was assessed two days later. […]

Long Evans rats [3] = assay: food consumption assay and body weight after IBU; assay type: in vivo, rat
Description: as §1
For some rats, food consumption was monitored. After fear conditioning as described above, each rat was returned to its home cage in a holding room. Each rat had 200 g of chow placed in the food hopper. Food was quickly weighed and returned 30 minutes, 1 hour, 2 hours, and 3 hours after fear conditioning ended. Three days after fear recall testing (five days after fear conditioning), food consumption was measured during the same time points within the day, but while the rats were undisturbed in their home cages in the vivarium.
To assess fear memory strength, conditional freezing was expressed as the percentage of time spent freezing, a probability estimate amenable to analysis with parametric statistics. These estimates of freezing, as well as hormone levels and data related to food consumption and body weight, were analyzed using ANOVA. Post hoc Fisher's PLSD tests were performed after a significant omnibus F-ratio.

Long Evans rats [4] = assay: auditory Pavlovian fear conditioning and extinction testing, unstressed rats; assay type: in vivo, rat
Description: All experiments used adult, male Long Evans rats (300-350 g, Charles River, Raleigh, N.C. or 250-275 g, Taconic, Germantown, N.Y.), individually housed (68-72° F.; 12-h light/dark cycle, 0700 h lights on). Control animals were housed in separate cubicles from stressed animals. Water and food was given ad libitum. All procedures were approved by the Institutional Animal Care and Use Committee of the Massachusetts Institute of Technology and the Animal Care and Use Review Office of the US Army Medical Research and Materiel Command and in accordance with the US National Institutes of Health (NIH) Guide for the Care and Use of Laboratory Animals.
as §1
Some rats received bilateral implants of stainless steel cannulae aimed at the BLA. Rats were anesthetized with a cocktail of 10 mg kg^−1 acepromazine, 100 mg kg^−1 xylazine, and 100 mg kg^−1 ketamine (1 ml kg^−1; i.p.) and placed in a dual arm stereotaxic frame (Kopf Instruments; Tujunga, Calif.). The rats were then implanted with 23 gauge guide cannulae 1 mm above LA using the following coordinates, relative to bregma and brain surface: A/P −2.0, M/L+/−5.3, D/V −5.4. Three jeweler screws were also implanted in the skull, and dental acrylic was used to secure the implant. Dummy cannulae extending 1 mm past the tip of the guide cannulae were placed into the guide cannula after surgery and changed every other day. Rats received 0.03 mg kg^−1 of Buprenex (1 ml kg^−1; subcutaneous injection (s.c.)) for post-operative pain management. All rats recovered for a minimum of 5 days.
A subset of rats were subjected to auditory Pavlovian fear conditioning and extinction testing. All rats were transported in their home cages from the vivarium to a holding room in which no behavioral testing was conducted. This transport occurred at least one hour prior to the onset of any behavioral testing.
For catheterized rats, each rat was placed in a fear conditioning box (MedAssociates; St. Albans, Vt.) scented with Pine-Sol (1%) for 250 sec total. The rats had 3 minutes to explore the novel environment before tone (10 seconds, 85 dB)-shock (2 seconds, 0.35 mA; coterminating with the tone) pairings [20 second intertrial intervals (ITIs)] were administered. Long-term context and tone fear memory was assessed the following day. For context extinction, the rats were returned to the fear conditioning context for a total of 10 minutes. Four hours later, tone extinction was administered by placing the rats in the fear conditioning boxes with an altered context. White Plexiglas inserts were used to obscure the back and side walls and cover the grid floor. Room and box lights were turned off, a red light provided illumination (15 W), and acetic acid (1%) was used to scent the boxes. Two minutes were allowed for exploration before a continuous tone (8 minutes, 87 dB) was presented. For rats with BLA cannula implants, all conditioning and testing was as described, except context and tone extinction were separated by 24 hours.
as §2
Infrared cameras (frame rate: 30 Hz) and VideoFreeze software (MedAssociates; St Albans, Vt.) were used to record behavior during all training and testing sessions. […]

[5] = intra-BLA infusion (0.5 μg/μl) prior to fear conditioning, FIG. 3B
[6] = systemic (i.p., 0.5 mg/ml) prior to fear conditioning, vs vehicle, FIG. 3A
[7] = systemic, 0.5 mg/mL, following fear conditioning, FIG. 7A

SMILES: CC(C)(N)C(=O)N[C@H](COCc1ccccc1)C(=O)N1CCC2(CC1)CN(S(C)(=O)=O)c1ccccc12 [IBU, ibutamoren mesylate]
- crossing of the blood-brain barrier [1]: readily crosses
- half-life [1]: > 6 h
- long-term auditory fear memory (conditional freezing) (Long Evans rats [2]; rats exposed to chronic immobilization stress (14 days), systemic IBU): no effect and not
- freezing during fear conditioning (group differences) (Long Evans rats [2]; stressed and unstressed rats, IBU or VEH): No group differences
- long-term auditory fear memory (Long Evans rats [2]; unstressed (handled) rats, systemic IBU): reduced; also recorded: significantly impaired
- body weight measured 24 hours after injection (Long Evans rats [3]; intra-BLA infusion, FIG. 3D): does not change
- body weight (Long Evans rats [3]; systemic, 0.5 mg/mL, IBU vs vehicle group, FIG. 3C right panel): did not differ
- food consumption shortly following injection (Long Evans rats [3]; systemic, 0.5 mg/mL, relative to body weight, FIG. 3C left panel): does not impact
- food consumption cumulatively, over the 24 hours following injection (Long Evans rats [3]; systemic, 0.5 mg/mL, relative to body weight, FIG. 3C middle panel): does not impact
- food consumption shortly following injection (Long Evans rats [3]; systemic, 10 mg/mL (twenty times the dose), FIG. 7B left panel): does not impact
- food consumption cumulatively, over the 24 h following injection (Long Evans rats [3]; systemic, 10 mg/mL (twenty times the dose), FIG. 7B middle panel): does not impact
- fear acquisition (Long Evans rats [4]; [5]): without any effect; also recorded: without affecting
- long-term auditory fear memory (Long Evans rats [4]; [5]): strongly inhibited; also recorded: significantly impaired
- long-term contextual memory (Long Evans rats [4]; [5]): strongly inhibited; also recorded: significantly impaired
- fear acquisition (Long Evans rats [4]; [6]): without impacting; also recorded: without affecting
- long-term contextual memory (Long Evans rats [4]; [6]): without impacting; also recorded: without affecting
- long-term auditory fear memory (Long Evans rats [4]; systemic (i.p., 1 ml/kg of 0.5 mg/ml) 30 minutes prior to fear conditioning, vs vehicle, FIG. 3A): significantly lower levels; also recorded: significantly impaired
- fear acquisition (Long Evans rats [4]; [7]): without any effect; also recorded: without affecting
- long-term auditory fear memory (Long Evans rats [4]; [7]): strongly inhibited; also recorded: significantly impaired
- long-term contextual fear memory (Long Evans rats [4]; [7]): strongly inhibited; also recorded: significantly impaired
